This passage reports inhibition results from ChEMBL document CHEMBL3627608, “Crystal structures of human RIP2 kinase catalytic domain complexed with ATP-competitive inhibitors: Foundations for understanding inhibitor selectivity” (Bioorg Med Chem, 2015).

As a reminder, the inhibition is the drop in the measured response relative to a control, in per cent.

Experiment [1] has as its target STE20-like serine/threonine-protein kinase (Homo sapiens) (UniProt Q9H2G2). In words: Inhibition of SLK (unknown origin) at 10 uM after 120 mins P33 radiolabeled kinase activity assay.
Experiment [2] has as its target Tyrosine-protein kinase JAK2 (Homo sapiens) (UniProt O60674). The experiment can be described thus: Inhibition of JAK2 (unknown origin) at 10 uM after 120 mins P33 radiolabeled kinase activity assay.
For experiment [3], the target named is T1, Ephrin type-A receptor 3 (Homo sapiens) (UniProt P29320).
T1 sequence (whole entry): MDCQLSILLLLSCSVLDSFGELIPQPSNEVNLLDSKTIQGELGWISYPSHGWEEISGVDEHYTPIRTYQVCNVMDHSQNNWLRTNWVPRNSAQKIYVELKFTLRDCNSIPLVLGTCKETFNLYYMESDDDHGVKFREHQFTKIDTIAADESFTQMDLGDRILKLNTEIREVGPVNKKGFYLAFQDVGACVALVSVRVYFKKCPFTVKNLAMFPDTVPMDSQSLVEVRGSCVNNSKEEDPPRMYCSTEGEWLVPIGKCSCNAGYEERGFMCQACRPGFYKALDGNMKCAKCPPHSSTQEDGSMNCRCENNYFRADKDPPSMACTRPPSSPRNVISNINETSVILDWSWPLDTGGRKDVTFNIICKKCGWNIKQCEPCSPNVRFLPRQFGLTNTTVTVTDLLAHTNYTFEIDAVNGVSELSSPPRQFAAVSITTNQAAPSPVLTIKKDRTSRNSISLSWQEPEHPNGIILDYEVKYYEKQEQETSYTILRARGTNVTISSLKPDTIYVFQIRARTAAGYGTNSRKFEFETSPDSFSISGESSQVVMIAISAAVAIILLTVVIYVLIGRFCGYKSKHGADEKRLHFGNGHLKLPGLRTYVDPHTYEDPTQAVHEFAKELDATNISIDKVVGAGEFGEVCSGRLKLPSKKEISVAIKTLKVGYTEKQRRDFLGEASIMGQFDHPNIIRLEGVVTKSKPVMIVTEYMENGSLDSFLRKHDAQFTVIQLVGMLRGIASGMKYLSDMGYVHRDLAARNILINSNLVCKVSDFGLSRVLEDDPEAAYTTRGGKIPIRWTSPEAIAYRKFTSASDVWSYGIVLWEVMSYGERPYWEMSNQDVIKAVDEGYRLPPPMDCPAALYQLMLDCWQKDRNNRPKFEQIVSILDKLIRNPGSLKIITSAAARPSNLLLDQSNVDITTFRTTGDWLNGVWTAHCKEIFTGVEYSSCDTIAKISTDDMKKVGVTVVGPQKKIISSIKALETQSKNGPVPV
The experiment can be described thus: Inhibition of EPHA3 (unknown origin) at 10 uM after 120 mins P33 radiolabeled kinase activity assay.

Experiment [4] concerns the target T2, Mitogen-activated protein kinase kinase kinase 5 (Homo sapiens) (UniProt Q99683).
T2 sequence (whole entry): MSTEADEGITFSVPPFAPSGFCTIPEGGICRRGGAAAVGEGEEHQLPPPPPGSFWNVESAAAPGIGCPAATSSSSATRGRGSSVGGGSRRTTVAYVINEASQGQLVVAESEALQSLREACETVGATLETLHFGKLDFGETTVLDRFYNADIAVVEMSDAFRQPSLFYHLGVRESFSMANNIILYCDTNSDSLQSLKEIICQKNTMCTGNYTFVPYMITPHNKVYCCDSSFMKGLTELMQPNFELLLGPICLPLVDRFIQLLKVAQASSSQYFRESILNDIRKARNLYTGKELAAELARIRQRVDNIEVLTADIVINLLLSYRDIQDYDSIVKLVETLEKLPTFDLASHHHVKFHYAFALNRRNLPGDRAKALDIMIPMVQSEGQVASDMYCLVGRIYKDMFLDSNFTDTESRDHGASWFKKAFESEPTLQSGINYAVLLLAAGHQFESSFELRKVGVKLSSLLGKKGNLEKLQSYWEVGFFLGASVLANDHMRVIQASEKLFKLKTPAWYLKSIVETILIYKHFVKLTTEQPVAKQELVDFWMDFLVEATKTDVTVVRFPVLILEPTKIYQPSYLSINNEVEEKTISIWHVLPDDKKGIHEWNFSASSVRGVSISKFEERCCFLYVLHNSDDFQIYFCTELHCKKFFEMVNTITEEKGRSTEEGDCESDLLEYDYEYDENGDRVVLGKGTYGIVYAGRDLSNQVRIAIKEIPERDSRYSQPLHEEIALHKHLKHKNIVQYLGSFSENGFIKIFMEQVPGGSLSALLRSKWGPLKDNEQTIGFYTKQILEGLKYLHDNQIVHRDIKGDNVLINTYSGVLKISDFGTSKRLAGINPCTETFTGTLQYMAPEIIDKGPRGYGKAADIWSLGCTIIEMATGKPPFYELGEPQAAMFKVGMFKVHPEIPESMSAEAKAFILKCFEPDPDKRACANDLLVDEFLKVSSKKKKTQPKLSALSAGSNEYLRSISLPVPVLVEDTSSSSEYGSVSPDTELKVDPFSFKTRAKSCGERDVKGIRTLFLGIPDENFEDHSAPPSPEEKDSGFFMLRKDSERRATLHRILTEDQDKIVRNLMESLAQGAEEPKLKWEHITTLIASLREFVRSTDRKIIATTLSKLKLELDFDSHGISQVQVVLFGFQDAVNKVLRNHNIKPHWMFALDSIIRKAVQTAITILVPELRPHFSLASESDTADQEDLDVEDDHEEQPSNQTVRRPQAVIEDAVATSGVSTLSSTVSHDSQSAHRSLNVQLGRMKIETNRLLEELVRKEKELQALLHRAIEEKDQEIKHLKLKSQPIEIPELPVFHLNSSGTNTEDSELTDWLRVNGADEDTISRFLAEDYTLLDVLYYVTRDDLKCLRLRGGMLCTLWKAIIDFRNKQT
The experiment can be described thus: Inhibition of ASK1 (unknown origin) at 10 uM after 120 mins P33 radiolabeled kinase activity assay.

Experiment [5] addresses Dual specificity tyrosine-phosphorylation-regulated kinase 1A (Homo sapiens) (UniProt Q13627). The experiment can be described thus: Inhibition of DYRK1 (unknown origin) at 10 uM after 120 mins P33 radiolabeled kinase activity assay.
Experiment [6] addresses Ribosomal protein S6 kinase beta-1 (Homo sapiens) (UniProt P23443). In words: Inhibition of RPS6KB1 (unknown origin) at 10 uM after 120 mins P33 radiolabeled kinase activity assay.
Experiment [7] concerns the target Tyrosine-protein kinase SYK (Homo sapiens) (UniProt P43405). The experiment can be described thus: Inhibition of SYK (unknown origin) at 10 uM after 120 mins P33 radiolabeled kinase activity assay.

The structures appear in SMILES notation.

Sequence of STE20-like serine/threonine-protein kinase (Homo sapiens) (Q9H2G2 whole entry, looked up): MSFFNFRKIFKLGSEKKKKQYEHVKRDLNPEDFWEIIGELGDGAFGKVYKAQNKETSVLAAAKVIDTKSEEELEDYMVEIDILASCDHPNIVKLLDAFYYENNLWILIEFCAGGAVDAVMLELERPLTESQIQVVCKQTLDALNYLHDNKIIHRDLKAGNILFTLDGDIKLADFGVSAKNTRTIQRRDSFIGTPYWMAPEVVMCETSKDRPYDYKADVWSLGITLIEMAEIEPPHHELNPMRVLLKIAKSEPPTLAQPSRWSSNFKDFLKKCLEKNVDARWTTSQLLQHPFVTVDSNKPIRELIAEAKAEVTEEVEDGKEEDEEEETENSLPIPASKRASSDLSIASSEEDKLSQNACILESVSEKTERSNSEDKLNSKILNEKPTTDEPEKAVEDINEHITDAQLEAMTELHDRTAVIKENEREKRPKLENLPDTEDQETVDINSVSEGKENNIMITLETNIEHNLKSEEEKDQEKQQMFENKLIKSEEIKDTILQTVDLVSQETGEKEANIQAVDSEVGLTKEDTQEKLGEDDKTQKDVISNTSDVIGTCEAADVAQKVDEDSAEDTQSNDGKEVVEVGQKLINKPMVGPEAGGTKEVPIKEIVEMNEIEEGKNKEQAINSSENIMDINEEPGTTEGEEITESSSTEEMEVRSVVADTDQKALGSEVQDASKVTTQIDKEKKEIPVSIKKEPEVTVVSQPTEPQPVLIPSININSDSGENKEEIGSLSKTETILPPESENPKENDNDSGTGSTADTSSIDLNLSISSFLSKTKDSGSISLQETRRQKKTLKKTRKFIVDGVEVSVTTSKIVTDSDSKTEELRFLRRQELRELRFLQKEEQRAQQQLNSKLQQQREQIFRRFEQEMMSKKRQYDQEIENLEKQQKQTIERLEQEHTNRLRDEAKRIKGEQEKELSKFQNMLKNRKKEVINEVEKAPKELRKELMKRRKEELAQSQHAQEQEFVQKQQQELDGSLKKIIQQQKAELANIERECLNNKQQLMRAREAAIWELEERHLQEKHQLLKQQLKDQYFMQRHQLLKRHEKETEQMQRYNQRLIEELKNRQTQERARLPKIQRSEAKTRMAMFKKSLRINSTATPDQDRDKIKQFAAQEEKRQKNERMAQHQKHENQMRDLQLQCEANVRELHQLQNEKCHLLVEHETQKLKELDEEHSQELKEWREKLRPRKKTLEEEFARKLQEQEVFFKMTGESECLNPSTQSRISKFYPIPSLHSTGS
Sequence of Ribosomal protein S6 kinase beta-1 (Homo sapiens) (P23443 whole entry, looked up): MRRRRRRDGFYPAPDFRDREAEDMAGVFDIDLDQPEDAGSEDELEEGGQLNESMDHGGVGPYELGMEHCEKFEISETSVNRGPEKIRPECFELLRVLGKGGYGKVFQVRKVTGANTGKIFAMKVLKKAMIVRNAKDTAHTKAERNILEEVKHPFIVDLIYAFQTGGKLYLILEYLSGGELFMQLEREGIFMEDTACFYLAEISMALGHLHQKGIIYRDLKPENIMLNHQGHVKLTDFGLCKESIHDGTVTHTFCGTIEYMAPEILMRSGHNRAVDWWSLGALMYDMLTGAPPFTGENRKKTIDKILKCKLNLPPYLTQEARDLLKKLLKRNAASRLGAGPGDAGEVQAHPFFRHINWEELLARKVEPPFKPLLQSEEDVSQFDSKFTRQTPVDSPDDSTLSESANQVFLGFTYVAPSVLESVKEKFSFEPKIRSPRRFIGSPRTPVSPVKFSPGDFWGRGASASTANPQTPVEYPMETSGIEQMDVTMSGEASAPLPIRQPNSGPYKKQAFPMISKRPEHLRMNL
Sequence of Tyrosine-protein kinase JAK2 (Homo sapiens) (O60674 whole entry): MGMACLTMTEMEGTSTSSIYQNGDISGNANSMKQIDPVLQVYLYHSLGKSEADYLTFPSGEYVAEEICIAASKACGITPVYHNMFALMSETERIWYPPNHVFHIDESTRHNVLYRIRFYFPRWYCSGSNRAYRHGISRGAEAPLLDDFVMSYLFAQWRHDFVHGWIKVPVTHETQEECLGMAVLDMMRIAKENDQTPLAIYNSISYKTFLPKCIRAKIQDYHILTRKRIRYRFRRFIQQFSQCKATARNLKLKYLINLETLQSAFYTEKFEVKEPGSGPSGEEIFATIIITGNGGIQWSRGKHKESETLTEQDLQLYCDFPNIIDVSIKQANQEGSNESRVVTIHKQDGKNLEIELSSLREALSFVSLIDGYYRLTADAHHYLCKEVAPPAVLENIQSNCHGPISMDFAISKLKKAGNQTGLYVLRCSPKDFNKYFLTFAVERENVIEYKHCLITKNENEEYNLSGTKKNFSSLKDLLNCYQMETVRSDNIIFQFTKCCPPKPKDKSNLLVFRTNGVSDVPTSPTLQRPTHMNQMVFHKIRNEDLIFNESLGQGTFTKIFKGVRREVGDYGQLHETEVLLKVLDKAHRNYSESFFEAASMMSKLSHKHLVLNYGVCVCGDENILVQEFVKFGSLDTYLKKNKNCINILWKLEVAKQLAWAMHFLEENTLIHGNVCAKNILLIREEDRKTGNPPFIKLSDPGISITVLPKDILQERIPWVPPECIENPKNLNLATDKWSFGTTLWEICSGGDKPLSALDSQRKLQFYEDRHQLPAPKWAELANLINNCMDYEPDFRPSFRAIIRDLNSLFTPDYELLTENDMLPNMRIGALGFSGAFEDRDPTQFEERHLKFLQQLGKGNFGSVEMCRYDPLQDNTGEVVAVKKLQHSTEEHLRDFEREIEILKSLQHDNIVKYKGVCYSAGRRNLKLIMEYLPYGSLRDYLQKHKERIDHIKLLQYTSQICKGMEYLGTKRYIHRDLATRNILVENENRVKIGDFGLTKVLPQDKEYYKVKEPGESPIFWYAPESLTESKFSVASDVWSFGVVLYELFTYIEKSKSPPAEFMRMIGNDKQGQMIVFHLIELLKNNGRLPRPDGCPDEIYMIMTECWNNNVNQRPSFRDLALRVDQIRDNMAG

Consider `CS(=O)(=O)c1cccc(Nc2nccc(-c3sc(N4CCOCC4)nc3-c3cccc(NS(=O)(=O)c4c(F)cccc4F)c3)n2)c1`, for which the inhibition in experiment [1] was determined as 86%; in experiment [2], 12%; in experiment [3], 57.4%; in experiment [4], 9.88%; in experiment [5], 31.6%; in experiment [6], 48.5%. Also, in experiment [7], the inhibition is 21.4%.

On to `CC(C)(C)c1cc(NC(=O)Nc2ccc(Oc3ccncc3)cc2)no1`, for which the inhibition in experiment [1] was 73%; in experiment [2], -0.98%; in experiment [3], 91.5%; in experiment [4], 19.8%; in experiment [5], 8.89%; in experiment [6] it was 84.2%. In addition, the inhibition in experiment [7] came out at 6.66%.

For `COCCNC(=O)c1ccc2c(c1)nc(-c1cnc(-c3ccc(Cl)cc3)[nH]1)n2CCOC`, the inhibition in experiment [1] was 31.2%; in experiment [2] it was -2.57%; in experiment [3], 17.5%; in experiment [4], 19.7%; in experiment [5], 9.38%; in experiment [6], 6.1%. In addition, the inhibition in experiment [7] was found to be 5.53%.
